From US10597388B2, “Pyridazinone herbicides” (FMC CORPORATION, priority 2014, dated 2020)

Experiments:
Format in all cases: in vivo
[1] = tested on: blackgrass (Alopecurus myosuroides); assay: Test A greenhouse herbicide test, postemergence; conditions: for Blackgrass plant response rating: 0 is no effect, 100 is complete control
Procedure, shortened: (§1)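 Plants grown in loam soil/sand blend pots were treated postemergence at 2 to 10 cm height, one- to two-leaf stage, with formulated test chemicals. After approximately 10 d in a greenhouse, injury was rated visually against untreated controls on a 0 to 100 scale (0 no effect, 100 complete control).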

[2] = tested on: galium (catchweed bedstraw, Galium aparine); assay: Test A greenhouse herbicide test, postemergence; conditions: for Galium plant response rating: 0 is no effect, 100 is complete control
Procedure, shortened: as §1

[3] = tested on: barnyardgrass (Echinochloa crus-galli); assay: Test B flooded paddy test; conditions: 250 g ai/ha, Flood; visual rating on scale of 0 to 100 where 0 is no effect and 100 is complete control; 13 to 15 d after treatment
Procedure, shortened: (§2)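 Plants at the 2-leaf stage were flooded to 3 cm above soil, and test compounds were applied directly into the paddy water, which was held at that depth throughout. After 13 to 15 d in a greenhouse, injury was rated visually against untreated controls on a 0–100 scale (0 no effect, 100 complete control).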

rice (Oryza sativa) = assay: Test B flooded paddy test; conditions: 250 g ai/ha, Flood; visual rating on scale of 0 to 100 where 0 is no effect and 100 is complete control; 13 to 15 d after treatment
Procedure, shortened: as §2

[4] = tested on: ducksalad (Heteranthera limosa); assay: Test B flooded paddy test; conditions: 250 g ai/ha, Flood; visual rating on scale of 0 to 100 where 0 is no effect and 100 is complete control; 13 to 15 d after treatment
Procedure, shortened: as §2

[5] = tested on: sedge, umbrella (small-flower umbrella sedge, Cyperus difformis); assay: Test B flooded paddy test; conditions: 250 g ai/ha, Flood; visual rating on scale of 0 to 100 where 0 is no effect and 100 is complete control; 13 to 15 d after treatment
Procedure, shortened: as §2

corn (Zea mays) = assay: Test A greenhouse herbicide test, pre- and postemergence; conditions: Postemergence; for Corn plant response rating: 0 is no effect, 100 is complete control
Procedure, shortened: (§3)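 Seeds sown in loam–sand blend got a preemergence directed soil spray of compound in non-phytotoxic solvent with surfactant. Postemergence treatment was given at 2–10 cm, one- to two-leaf stage. After ~10 d in greenhouse, injury was rated visually vs untreated controls, 0 (no effect) to 100 (complete control).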

[6] = tested on: wheat (Triticum aestivum); assay: as above; conditions: Postemergence; for Wheat plant response rating: 0 is no effect, 100 is complete control
Procedure, shortened: as §3

[7] = tested on: foxtail, giant (giant foxtail, Setaria faberii); assay: as above
Procedure, shortened: as §3

[8] = tested on: barnyardgrass (Echinochloa crus-galli); assay: as above
Procedure, shortened: as §3

[9] = tested on: ragweed (common ragweed, Ambrosia elatior); assay: as above
Procedure, shortened: as §3

kochia (Kochia scoparia) = assay: as above
Procedure, shortened: as §3

[10] = tested on: ryegrass, Italian (Italian ryegrass, Lolium multiflorum); assay: as above
Procedure, shortened: as §3

[11] = tested on: pigweed (Amaranthus retroflexus); assay: as above
Procedure, shortened: as §3

[12] = Postemergence, 1000 g ai/ha, 0 to 100 scale, 0 is no effect, 100 is complete control
[13] = Preemergence, 1000 g ai/ha, 0 to 100 scale, 0 no effect, 100 complete control
[14] = 125 g ai/ha, 0 to 100 scale, 0 no effect, 100 complete control
[15] = 500 g ai/ha, visual rating after approx. 10 d, 0 to 100 scale (0 no effect, 100 complete control)
[16] = Postemergence, 125 g ai/ha, 0 to 100 scale, 0 no effect, 100 complete control
[17] = Postemergence, 500 g ai/ha, visual rating after approx. 10 d, 0 to 100 scale (0 no effect, 100 complete control)
[18] = Preemergence, 125 g ai/ha, visual injury rating, 0 to 100 scale (0 no effect, 100 complete control), approx. 10 d
[19] = Preemergence, 500 g ai/ha, 0 to 100 scale where 0 is no effect and 100 is complete control
[20] = 125 g ai/ha, 0 to 100 scale where 0 is no effect and 100 is complete control
[21] = Postemergence, 125 g ai/ha, 0 to 100 scale where 0 is no effect and 100 is complete control
[22] = Postemergence, 500 g ai/ha, 0 to 100 scale, 0 is no effect, 100 is complete control
[23] = Preemergence, 125 g ai/ha, 0 to 100 scale where 0 is no effect and 100 is complete control
[24] = Preemergence, 500 g ai/ha, 0 to 100 scale, 0 no effect, 100 complete control

Structure (SMILES): Cc1nn(C)c(=O)c(-c2cccc3ccccc23)c1OCC(=O)c1ccccc1 [Compound 184]
- Blackgrass plant response rating ([1]; 1000 g ai/ha, 0 to 100 scale): 30
- Galium plant response rating ([2]; 1000 g ai/ha, 0 to 100 scale): 90
- Plant response rating, Barnyardgrass [3]: 0
- Plant response rating, Rice (rice (Oryza sativa)): 0
- Plant response rating, Ducksalad [4]: 0
- Plant response rating, Sedge, Umbrella [5]: 0
- Corn plant response rating (corn (Zea mays); 1000 g ai/ha, 0 to 100 scale): 0
- Wheat plant response rating ([6]; 1000 g ai/ha, 0 to 100 scale): 0
- Foxtail, Giant plant response rating [7, 12]: 20
- Plant response rating, Foxtail, Giant [7, 13]: 30
- Barnyardgrass plant response rating [8, 12]: 20
- Plant response rating, Barnyardgrass [8, 13]: 10
- Ragweed plant response rating [9, 12]: 30
- Plant response rating, Ragweed [9, 13]: 70
- Kochia plant response rating (kochia (Kochia scoparia); [12]): 80
- Plant response rating, Kochia (kochia (Kochia scoparia); [13]): 20
- Ryegrass, Italian plant response rating [10, 12]: 80
- Plant response rating, Ryegrass, Italian [10, 13]: 90
- Pigweed plant response rating [11, 12]: 80
- Plant response rating, Pigweed [11, 13]: 90

Structure (SMILES): Cc1nn(C)c(=O)c(-c2ccc(Cl)c3ccccc23)c1OS(=O)(=O)N(C)C [Compound 185]
- Plant response rating, Blackgrass [1, 14]: 0
- Plant response rating, Blackgrass [1, 15]: 20
- Plant response rating, Galium [2, 14]: 70
- Plant response rating, Galium [2, 15]: 90
- Plant response rating, Barnyardgrass [3]: 0
- Plant response rating, Rice (rice (Oryza sativa)): 0
- Plant response rating, Ducksalad [4]: 0
- Plant response rating, Sedge, Umbrella [5]: 0
- Plant response rating, Corn (corn (Zea mays); [14]): 0
- Plant response rating, Corn (corn (Zea mays); [15]): 30
- Plant response rating, Wheat [6, 14]: 0
- Plant response rating, Wheat [6, 15]: 0
- Plant response rating, Foxtail, Giant [7, 16]: 0
- Plant response rating, Foxtail, Giant [7, 17]: 20
- Plant response rating, Foxtail, Giant [7, 18]: 0
- Plant response rating, Foxtail, Giant [7, 19]: 30
- Plant response rating, Barnyardgrass [8, 16]: 10
- Plant response rating, Barnyardgrass [8, 17]: 30
- Plant response rating, Barnyardgrass [8, 18]: 0
- Plant response rating, Barnyardgrass [8, 19]: 50
- Plant response rating, Ragweed [9, 16]: 10
- Plant response rating, Ragweed [9, 17]: 50
- Plant response rating, Ragweed [9, 18]: 0
- Plant response rating, Ragweed [9, 19]: 40
- Plant response rating, Kochia (kochia (Kochia scoparia); [16]): 70
- Plant response rating, Kochia (kochia (Kochia scoparia); [17]): 100
- Plant response rating, Kochia (kochia (Kochia scoparia); [18]): 0
- Plant response rating, Kochia (kochia (Kochia scoparia); [19]): 10
- Plant response rating, Ryegrass, Italian [10, 16]: 70
- Plant response rating, Ryegrass, Italian [10, 17]: 80
- Plant response rating, Ryegrass, Italian [10, 18]: 0
- Plant response rating, Ryegrass, Italian [10, 19]: 40
- Plant response rating, Pigweed [11, 16]: 50
- Plant response rating, Pigweed [11, 17]: 90
- Plant response rating, Pigweed [11, 18]: 20
- Plant response rating, Pigweed [11, 19]: 60

Structure (SMILES): COc1nn(C)c(=O)c(-c2cccc3ccccc23)c1O [Compound 55]
- Plant response rating, Blackgrass [1, 20]: 70
- Blackgrass plant response rating ([1]; 500 g ai/ha, 0 to 100 scale): 80
- Plant response rating, Galium [2, 20]: 100
- Galium plant response rating ([2]; 500 g ai/ha, 0 to 100 scale): 100
- Plant response rating, Barnyardgrass [3]: 0
- Plant response rating, Rice (rice (Oryza sativa)): 0
- Plant response rating, Ducksalad [4]: 0
- Plant response rating, Sedge, Umbrella [5]: 0
- Plant response rating, Corn (corn (Zea mays); [20]): 0
- Corn plant response rating (corn (Zea mays); 500 g ai/ha, 0 to 100 scale): 20
- Plant response rating, Wheat [6, 20]: 0
- Wheat plant response rating ([6]; 500 g ai/ha, 0 to 100 scale): 0
- Plant response rating, Foxtail, Giant [7, 21]: 70
- Foxtail, Giant plant response rating [7, 22]: 90
- Foxtail, Giant plant response rating [7, 23]: 80
- Plant response rating, Foxtail, Giant [7, 24]: 100
- Plant response rating, Barnyardgrass [8, 21]: 60
- Barnyardgrass plant response rating [8, 22]: 90
- Barnyardgrass plant response rating [8, 23]: 90
- Plant response rating, Barnyardgrass [8, 24]: 90
- Plant response rating, Ragweed [9, 21]: 90
- Ragweed plant response rating [9, 22]: 100
- Ragweed plant response rating [9, 23]: 90
- Plant response rating, Ragweed [9, 24]: 100
- Plant response rating, Kochia (kochia (Kochia scoparia); [21]): 90
- Kochia plant response rating (kochia (Kochia scoparia); [22]): 100
- Kochia plant response rating (kochia (Kochia scoparia); [23]): 70
- Plant response rating, Kochia (kochia (Kochia scoparia); [24]): 100
- Plant response rating, Ryegrass, Italian [10, 21]: 100
- Ryegrass, Italian plant response rating [10, 22]: 100
- Ryegrass, Italian plant response rating [10, 23]: 100
- Plant response rating, Ryegrass, Italian [10, 24]: 100
- Plant response rating, Pigweed [11, 21]: 70
- Pigweed plant response rating [11, 22]: 90
- Pigweed plant response rating [11, 23]: 70
- Plant response rating, Pigweed [11, 24]: 100
